According to a melting point compilation (Tetko et al.):

| melting point [°C] | SMILES |
| --- | --- |
| 162 to 164 | CCC(C)(NC(=O)c1ccccc1)C(N)=S (stereo unspecified) |
| 110 to 112 | Oc1ccccc1Oc1ccccn1 |
| 180 to 182 | O=C(O)Cc1ccc(NS(=O)(=O)c2ccc(F)cc2)cc1 |
| 89 to 91 | CC(C)(C)S(=O)(=O)CC(=O)O |
| 115 to 117 | CCOc1ccccc1C(N)=S |
| 58 to 60 | O=Cc1ccc(-c2ccc(Cl)cc2C(F)(F)F)s1 |
| 68 to 70 | CC1CCN(Cc2ccccc2)c2ccccc2N1 (stereo unspecified) |
| 139 to 141 | OC1CCNCc2ccccc21 (stereo unspecified) |
| 225 to 227 | Cc1cc(F)c2c(c1)C(=O)C(=O)N2 |
| 209 to 211 | Cc1ncc(C(=O)O)s1 |
| 167 to 169 | O=C(O)c1cnsn1 |
| 235 to 237 | O=C(O)Cn1[nH]c(=O)ccc1=O |
| 316 to 318 | Cn1c(=O)c2c(=O)cc(N)[nH]c2n(C)c1=O |
| 159 to 161 | CC(=O)c1c(Cl)nc2sccn12 |
| 94 to 96 | CC(C)(C)c1ccc(OCCC(=O)O)cc1 |
| 129 to 131 | N#Cc1nc(-c2ccco2)oc1N1CCNCC1 |
| 264 to 266 | Cc1cc(O)cc(=O)n1C1CC1 |
| 87 to 89 | CN(C)S(=O)(=O)c1ccccc1CNC(=O)CCl |
| 89 to 91 | Nc1cccc(CN2CCC(CO)CC2)c1 |
| 291 to 293 | Cc1nn2c(=S)nc3ccccc3c2[nH]1 |
| 162 to 164 | O=C1CC(c2ccccc2)Nc2ccccc2N1 (stereo unspecified) |
| 233 to 235 | Cn1c(=O)[nH]cc(C(=O)O)c1=O |
| 168 to 170 | CC(Cl)C(=O)Nc1ccc2c(c1)OCO2 (stereo unspecified) |
| 118 to 120 | Cc1occc1-c1nnc(S)n1C |

| melting point [°C] | SMILES |
| --- | --- |
| 120 to 122 | Cc1ccc(Cl)nc1CC(=O)O |
| 124 to 126 | NC(CN1CCCCCC1)=NO |
| 137 to 139 | COc1ccc(S(N)(=O)=O)cc1C |
| 75 to 77 | CC(=O)OCc1ccc(S(=O)(=O)C(F)F)cc1 |
| 152 to 154 | O=C(O)CC(O)(c1nccn1Cc1ccccc1)C(F)(F)F (stereo unspecified) |
| 159 to 161 | Nc1cc(-n2cnnn2)ccc1Cl |
| 164 to 166 | NS(=O)(=O)c1ccc2c(c1)NCCC2 |
| 59 to 61 | Clc1ccc(-n2cccn2)cc1Cl |
| 68 to 70 | CC(Cc1ccc(C(F)(F)F)cc1)C(=O)O (stereo unspecified) |
| 89 to 91 | O=C(NC1CC1)n1ccnc1 |
| 288 to 290 | O=C(O)c1ccc(Cl)c(N2CCCC2=O)c1 |
| 67 to 69 | Nc1cc(CCc2ccco2)no1 |
| 137 to 139 | Cc1ccc(Cl)c(OC(C)C(=O)O)c1 (stereo unspecified) |
| 207 to 209 | CC(C)c1c(C(=O)O)cnc2ncnn12 |
| 115 to 124 | Nc1ccccc1C(=O)NCc1ccc2c(c1)OCO2 |
| 70 to 72 | OCc1ccc(Br)cc1Cl |
| 50 to 52 | Clc1ncnc2c1CCCCC2 |
| 31 to 33 | Clc1ccc(OCC2CO2)cc1 (stereo unspecified) |
| 165 to 167 | CCc1nc(C)c(C(=O)O)s1 |
| 135 to 137 | O=C(O)CSc1nnnn1CC(F)(F)F |
| 170 to 172 | Cn1cnnc1S(=O)(=O)O |
| 209 to 211 | O=C(O)c1cc2c(F)c(F)ccc2[nH]1 |
| 134 to 136 | O=C(O)CCc1ccccn1 |
| 209 to 211 | O=C(O)c1ccc(CNC(=O)c2cccs2)cc1 |

| melting point [°C] | SMILES |
| --- | --- |
| 78 to 82 | O=C(NCc1ccccc1)c1ccccc1O |
| 52 to 54 | COC(=O)c1cccc(-c2nc(C)cs2)c1 |
| 131 to 133 | CN1CC(=O)N(c2cccc(N)c2)C1=O |
| 69 to 71 | Cc1ccc(S(=O)(=O)Cl)cc1Br |
| 39 to 41 | COCC(=O)c1ccc(F)c(F)c1 |
| 242 to 244 | NS(=O)(=O)c1ccc(S)nc1 |
| 182 to 184 | Cc1[nH]c(-c2ccccn2)nc(=NN)c1C |
| 214 to 216 | COC(=O)c1c[nH]c(=O)c([N+](=O)[O-])c1 |
| 113 to 115 | CSc1nnnn1-c1cccc(N)c1 |
| 125 to 128 | Cc1ccc(-c2nc(S)n[nH]2)cc1 |
| 275 to 277 | CC(=O)Oc1ccc(-c2ccc(C(=O)O)cc2)cc1 |
| 153 to 155 | O=C(O)c1oc2ccccc2c1CO |
| 256 to 258 | Cc1nc(-c2ccncc2)nc(O)c1C |
| 70 to 72 | O=C(O)C(=O)c1ccc2c(c1)CCCC2 |
| 223 to 225 | Cc1cccc(NS(=O)(=O)c2ccc(N)cc2)n1 |
| 69 to 71 | CCCCCS(=O)(=O)CC(=O)O |
| 106 to 108 | CCCC(=O)Nc1cccc(N)c1C |
| 159 to 161 | O=C(O)CSc1nc2ccccc2s1 |
| 120 to 122 | CC(Cl)C(=O)Nc1cc([N+](=O)[O-])ccc1Cl (stereo unspecified) |
| 306 to 308 | N#Cc1ccccc1S(N)(=O)=O |
| 179 to 181 | Cc1cc(C(=O)NCC(=O)O)c(C)o1 |
| 85 to 87 | Nc1nc(-c2cccc(C(F)(F)F)c2)cs1 |
| 187 to 189 | CC1(C(=O)O)CCCCN1C(=O)c1ccccc1 (stereo unspecified) |
| 81 to 83 | CC(=O)CC(=O)Nc1cccc(F)c1 |

| melting point [°C] | SMILES |
| --- | --- |
| 159 to 161 | O=C1CC(C(F)(F)F)N(C(=O)CCl)c2ccccc2N1 (stereo unspecified) |
| 111 to 113 | Cc1nc(Cl)cc(-c2ccncc2)n1 |
| 78 to 80 | COc1cc(SC#N)ccc1O |
| 128 to 130 | O=C(c1ccc(Cl)cc1)c1ccc2c(c1)OCO2 |
| 177 to 179 | COC(=O)Nc1ccccc1C(=O)O |
| 149 to 151 | COC(=O)c1sc2nc(C)nc(Cl)c2c1C |
| 176 to 178 | Cc1ccc(C(=O)C(=O)O)cc1 |
| 119 to 121 | Nc1cc(C(F)(F)F)ccc1-n1cncn1 |
| 57 to 59 | O=S(=O)(Cl)c1cnn(Cc2ccccc2)c1 |
| 159 to 161 | CC(C)(C)c1ncccc1O |
| 104 to 106 | COC(=O)CNc1ccncc1[N+](=O)[O-] |
| 126 to 128 | Oc1ccc(Oc2nccs2)cc1 |
| 93 to 95 | O=C(CCl)NCc1ccccc1[N+](=O)[O-] |
| 65 to 67 | Cc1ccc(C(=O)COc2ccc(C=O)cc2)cc1C |
| 229 to 231 | COc1ccccc1-c1cc(C(=O)O)c2c(C)noc2n1 |
| 119 to 123 | O=C(O)CCNS(=O)(=O)C=Cc1ccccc1 |
| 93 to 95 | CC(C)(C)C(N)=NO |
| 229 to 231 | O=C(O)c1cc2c(F)ccc(F)c2[nH]1 |
| 188 to 190 | CN1CCN(C)c2cc(N)ccc2C1=O |
| 169 to 171 | O=C(O)CN1CCCCC1=O |
| 191 to 193 | NNC(=O)C(=O)NCc1ccc(Cl)cc1 |
| 278 to 280 | O=C(O)c1cnc2c(c1)c(=O)[nH]c(=O)n2Cc1ccccc1 |
| 89 to 91 | COc1cc(C=O)ccc1OC(=O)OC(C)(C)C |
| 52 to 54 | O=C(O)Cc1cccc(OC(F)F)c1 |

| melting point [°C] | SMILES |
| --- | --- |
| 225 to 227 | CC1Oc2ncccc2NC1=O (stereo unspecified) |
| 222 to 224 | CC1CSc2ccc(Cl)cc2NC1=O (stereo unspecified) |
| 238 to 240 | N#Cc1ccc(-n2cnc(N)n2)cc1 |
| 140 to 142 | NC(=O)c1ccc2c(c1)CCCC2 |
| 205 to 207 | CS(=O)(=O)Nc1cc(F)ccc1C(=O)O |
| 135 to 137 | CN1CCN(C(=O)c2ccc(N)cc2)CC1 |
| 61 to 63 | O=Cc1nc(-c2ccccc2)cs1 |
| 89 to 91 | COc1nc(Cl)nc(Cl)n1 |
| 63 to 65 | O=C(O)C1CC1c1ccccc1OC(F)F (stereo unspecified) |
| 165 to 167 | Nc1cc([N+](=O)[O-])ccc1Nc1cccc(C(F)(F)F)c1 |
| 251 to 253 | Nc1cc(-c2ccc(Br)cc2)ncn1 |
| 338 to 340 | Nc1ncc(C(=O)O)cc1Cl |
| 166 to 168 | Cc1ccc(I)cc1C(=O)O |
| 109 to 111 | COc1ccc(NC(=O)C(C)Cl)cc1OC (stereo unspecified) |
| 178 to 180 | CC(C)c1noc2nc(C3CC3)cc(C(=O)O)c12 |
| 154 to 156 | Nc1noc(COc2ccc(F)cc2)n1 |
| 130 to 132 | Cc1ccc(C#N)nc1Br |
| 86 to 89 | CS(=O)(=O)c1nc2ccccc2s1 |
| 79 to 81 | O=Cc1cc(Cl)ccc1OCc1cccnc1 |
| 189 to 191 | Cn1cc(C(N)=S)cn1 |
| 215 to 217 | NC(C(=O)O)c1ccc(Cl)cc1Cl (stereo unspecified) |
| 219 to 221 | O=C(O)c1ccc(C(=O)c2cc[nH]c2)cc1 |
| 205 to 207 | O=C(O)C1CCCN(C2=NS(=O)(=O)c3ccccc32)C1 (stereo unspecified) |
| 86 to 88 | N#Cc1ccc(Oc2cccc(N)c2)cc1 |

| melting point [°C] | SMILES |
| --- | --- |
| 85 to 87 | Cc1cccc(OC(C)C(=O)O)c1 (stereo unspecified) |
| 143 to 145 | COC(=O)Cc1cc(O)n[nH]1 |
| 184 to 186 | NS(=O)(=O)c1cc(F)cc([N+](=O)[O-])c1 |
| 181 to 183 | Oc1cccc(-n2cncn2)c1 |
| 129 to 131 | O=C(O)c1cccc(S(=O)(=O)N2CCN(c3ccc(F)cc3)CC2)c1 |
| 48 to 50 | CN(C)C=C(Br)C=O |
| 44 to 46 | CN(C)c1cncc(Cl)n1 |
| 54 to 56 | NC(=S)CO |
| 303 to 305 | COc1ccc(CCC(C)(N)C(=O)O)cc1 (stereo unspecified) |
| 95 to 97 | OCc1csc(-c2ccccn2)n1 |
| 201 to 203 | OCc1cccc2cn[nH]c12 |
| 158 to 160 | CS(=O)(=O)Nc1ccc(O)cc1 |
| 124 to 126 | CC1(C)OC(=O)C(=Cc2ccc(I)o2)C(=O)O1 |
| 39 to 41 | Cc1ccc(S(=O)(=O)Cl)c(F)c1 |
| 127 to 129 | Cc1cc(S(=O)(=O)Cl)cc([N+](=O)[O-])c1C |
| 126 to 128 | O=C(O)c1ccccc1COc1ccccc1 |
| 70 to 72 | N#Cc1ccc(S(=O)(=O)Cl)c(C(F)(F)F)c1 |
| 140 to 142 | CS(=O)(=O)Cc1ccc(Cl)cc1N |
| 205 to 209 | CCOC=C1C(=O)N(c2cccc(Cl)c2)C(=O)c2ccccc21 |
| 95 to 97 | Cc1nc2c(F)cccc2c(Cl)c1C |

| SMILES | melting point [°C] |
| --- | --- |
| CN1CCN(c2ccnc(C#N)c2)CC1 | 114 to 116 |
| Nc1ccc(S(=O)(=O)NC2CN3CCC2CC3)cc1 (stereo unspecified) | 168 to 170 |
| COc1ccc(C2=CCNCC2)cc1 | 73 to 75 |
| CC(C)(C)OC(=O)N1CCC(OC(=O)c2ccccc2N)CC1 | 120 to 122 |
| Cn1cc(C(=O)CBr)cn1 | 116 to 118 |
| NCCc1nc2ccccc2s1 | 47 to 49 |
